pIC50: −log10 of the molar value. Active and inactive are the calls of the source. The calls are words filed in the database; no cut-off is given here.
Columns and labels:
P2X purinoceptor 7 [1] = molecular target: T1, P2X purinoceptor 7 (Homo sapiens, UniProt Q99572); assay: Antagonist activity at human recombinant P2X7 receptor; type: functional
T1 sequence (Q99572 whole entry): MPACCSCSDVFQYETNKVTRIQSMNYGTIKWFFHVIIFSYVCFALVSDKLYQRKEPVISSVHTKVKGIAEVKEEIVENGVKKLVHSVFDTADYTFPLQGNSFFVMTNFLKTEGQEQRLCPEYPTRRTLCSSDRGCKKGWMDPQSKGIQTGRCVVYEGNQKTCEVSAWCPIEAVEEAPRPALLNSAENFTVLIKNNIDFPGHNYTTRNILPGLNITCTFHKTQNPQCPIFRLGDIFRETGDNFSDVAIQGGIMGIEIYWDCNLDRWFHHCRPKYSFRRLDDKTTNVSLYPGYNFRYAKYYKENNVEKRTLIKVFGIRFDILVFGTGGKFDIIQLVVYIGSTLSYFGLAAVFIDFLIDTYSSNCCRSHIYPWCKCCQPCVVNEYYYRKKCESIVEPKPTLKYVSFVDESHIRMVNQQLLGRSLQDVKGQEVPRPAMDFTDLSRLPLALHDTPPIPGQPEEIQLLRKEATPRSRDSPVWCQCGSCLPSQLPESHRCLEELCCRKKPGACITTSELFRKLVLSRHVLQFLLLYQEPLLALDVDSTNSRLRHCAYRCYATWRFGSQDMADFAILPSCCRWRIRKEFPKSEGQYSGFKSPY

P2X purinoceptor 7 [2] = molecular target: T2, P2X purinoceptor 7 (Rattus norvegicus, UniProt Q64663); assay: Antagonist activity at rat recombinant P2X7 receptor; type: functional
T2 sequence (Q64663 whole entry): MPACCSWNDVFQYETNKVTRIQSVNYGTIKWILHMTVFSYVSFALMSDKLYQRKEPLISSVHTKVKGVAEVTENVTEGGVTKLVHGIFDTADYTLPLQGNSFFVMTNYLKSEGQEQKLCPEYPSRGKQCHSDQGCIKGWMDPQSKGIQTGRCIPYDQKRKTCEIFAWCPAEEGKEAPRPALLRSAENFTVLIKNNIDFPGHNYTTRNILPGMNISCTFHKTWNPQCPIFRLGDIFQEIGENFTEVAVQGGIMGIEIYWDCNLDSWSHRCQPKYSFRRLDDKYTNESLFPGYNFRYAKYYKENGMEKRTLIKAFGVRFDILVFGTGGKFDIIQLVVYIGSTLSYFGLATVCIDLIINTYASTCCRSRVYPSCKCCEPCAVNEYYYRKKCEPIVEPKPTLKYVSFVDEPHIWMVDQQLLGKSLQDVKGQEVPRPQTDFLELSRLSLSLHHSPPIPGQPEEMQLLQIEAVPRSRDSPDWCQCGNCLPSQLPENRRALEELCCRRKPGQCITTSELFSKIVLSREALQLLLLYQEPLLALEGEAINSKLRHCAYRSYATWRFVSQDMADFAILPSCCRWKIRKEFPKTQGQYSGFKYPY

THP-1 = assay: Inhibition of IL1-beta release from THP1 cells; type: functional, cell-based; settings: Homo sapiens
Homo sapiens = species on record: Homo sapiens; assay: Activity at human P2X2/3 receptor at 10 uM
Rattus norvegicus = species on record: Rattus norvegicus; assay: Antinociceptive activity in rat Chung model of neuropathic pain assessed as reversal of allodynia after 30 mins; type: functional
[3] = molecular target: P2Y purinoceptor 2 (Homo sapiens) (UniProt P41231); assay: Activity at human P2Y2 receptor at 10 uM
P2Y purinoceptor 2 (Homo sapiens), sequence (P41231 whole entry): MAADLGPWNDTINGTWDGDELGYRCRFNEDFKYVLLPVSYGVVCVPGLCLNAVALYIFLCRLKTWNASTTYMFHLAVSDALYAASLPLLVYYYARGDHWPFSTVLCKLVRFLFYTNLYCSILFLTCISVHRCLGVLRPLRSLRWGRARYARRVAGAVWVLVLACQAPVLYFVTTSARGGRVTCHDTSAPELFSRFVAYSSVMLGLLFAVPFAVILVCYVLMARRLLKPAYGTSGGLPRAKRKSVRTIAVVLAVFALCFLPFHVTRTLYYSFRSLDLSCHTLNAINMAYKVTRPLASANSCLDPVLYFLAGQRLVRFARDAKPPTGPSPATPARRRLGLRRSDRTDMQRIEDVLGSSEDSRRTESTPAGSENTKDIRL

[4] = Half life in ip dosed rat Chung model of neuropathic pain; type: ADME, organism-based; settings: in vivo
[5] = molecular target: T3, P2X purinoceptor 2 (Homo sapiens) (UniProt Q9UBL9); assay: Antagonist activity at human P2X2 receptor at 10 uM; type: functional
T3 sequence (whole entry): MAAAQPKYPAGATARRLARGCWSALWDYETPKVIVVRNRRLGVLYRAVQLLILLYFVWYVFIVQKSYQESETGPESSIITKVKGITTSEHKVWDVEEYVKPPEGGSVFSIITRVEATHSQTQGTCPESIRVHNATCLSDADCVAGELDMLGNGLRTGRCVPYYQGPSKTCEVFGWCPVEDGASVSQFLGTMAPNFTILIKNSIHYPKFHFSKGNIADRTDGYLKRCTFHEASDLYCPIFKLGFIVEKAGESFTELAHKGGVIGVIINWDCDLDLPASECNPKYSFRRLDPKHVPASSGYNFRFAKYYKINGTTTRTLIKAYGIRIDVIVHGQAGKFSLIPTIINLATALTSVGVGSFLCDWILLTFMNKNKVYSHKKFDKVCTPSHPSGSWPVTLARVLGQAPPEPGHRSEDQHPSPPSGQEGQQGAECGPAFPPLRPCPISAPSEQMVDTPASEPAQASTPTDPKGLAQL

[6] = Clearance in rat at 5 umol/kg, iv; type: ADME, organism-based; settings: in vivo
[7] = Oral bioavailability in rat at 5 umol/kg; type: ADME, organism-based; settings: in vivo
[8] = Volume of distribution at terminal phase in rat at 5 umol/kg, iv; type: ADME, organism-based; settings: in vivo
[9] = Cmax in rat at 5 umol/kg, ip; type: ADME, organism-based; design: dose 5 umol/kg, route intraperitoneal; settings: in vivo
[10] = molecular target: Translocator protein (Homo sapiens) (UniProt P30536); assay: Activity at peripheral benzodiazepine receptor at 10 uM
Translocator protein (Homo sapiens), sequence (P30536 whole entry): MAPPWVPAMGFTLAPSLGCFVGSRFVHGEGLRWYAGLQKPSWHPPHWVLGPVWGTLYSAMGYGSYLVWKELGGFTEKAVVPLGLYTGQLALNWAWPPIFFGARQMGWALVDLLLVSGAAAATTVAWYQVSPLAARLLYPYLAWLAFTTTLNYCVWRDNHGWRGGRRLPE

[11] = molecular target: P2Y purinoceptor 1 (Homo sapiens) (UniProt P47900); assay: Activity at human P2Y1 receptor at 10 uM
P2Y purinoceptor 1 (Homo sapiens), sequence (P47900 whole entry): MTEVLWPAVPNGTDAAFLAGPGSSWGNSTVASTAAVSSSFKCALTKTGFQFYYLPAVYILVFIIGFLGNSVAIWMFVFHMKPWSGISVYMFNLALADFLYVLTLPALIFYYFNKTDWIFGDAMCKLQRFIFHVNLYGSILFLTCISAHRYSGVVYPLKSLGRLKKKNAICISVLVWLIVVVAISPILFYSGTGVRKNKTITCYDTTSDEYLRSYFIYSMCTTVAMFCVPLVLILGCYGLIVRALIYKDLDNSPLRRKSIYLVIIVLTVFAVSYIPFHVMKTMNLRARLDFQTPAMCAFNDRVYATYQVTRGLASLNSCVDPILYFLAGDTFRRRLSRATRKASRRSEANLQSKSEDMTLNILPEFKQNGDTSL

[12] = Tmax in rat at 5 umol/kg, ip; type: ADME, organism-based; settings: in vivo
[13] = Bioavailability in ip dosed rat Chung model of neuropathic pain; type: ADME, organism-based; settings: in vivo
[14] = molecular target: T4, P2X purinoceptor 1 (Homo sapiens) (UniProt P51575); assay: Activity at human P2X1 receptor at 10 uM
T4 sequence (whole entry): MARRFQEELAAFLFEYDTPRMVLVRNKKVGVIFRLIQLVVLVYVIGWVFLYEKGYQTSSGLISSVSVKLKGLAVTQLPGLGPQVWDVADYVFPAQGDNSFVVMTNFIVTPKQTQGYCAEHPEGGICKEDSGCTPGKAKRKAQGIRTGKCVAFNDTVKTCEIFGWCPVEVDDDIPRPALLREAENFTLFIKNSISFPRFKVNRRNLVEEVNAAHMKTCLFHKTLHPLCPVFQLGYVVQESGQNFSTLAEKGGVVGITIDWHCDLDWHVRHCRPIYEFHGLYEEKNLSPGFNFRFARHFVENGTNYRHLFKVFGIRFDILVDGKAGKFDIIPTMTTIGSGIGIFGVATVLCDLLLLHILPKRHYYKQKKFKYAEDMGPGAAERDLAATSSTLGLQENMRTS

[15] = molecular target: T5, P2X purinoceptor 4 (Homo sapiens) (UniProt Q99571); assay: Activity at human P2X4 receptor at 10 uM
T5 sequence (whole entry): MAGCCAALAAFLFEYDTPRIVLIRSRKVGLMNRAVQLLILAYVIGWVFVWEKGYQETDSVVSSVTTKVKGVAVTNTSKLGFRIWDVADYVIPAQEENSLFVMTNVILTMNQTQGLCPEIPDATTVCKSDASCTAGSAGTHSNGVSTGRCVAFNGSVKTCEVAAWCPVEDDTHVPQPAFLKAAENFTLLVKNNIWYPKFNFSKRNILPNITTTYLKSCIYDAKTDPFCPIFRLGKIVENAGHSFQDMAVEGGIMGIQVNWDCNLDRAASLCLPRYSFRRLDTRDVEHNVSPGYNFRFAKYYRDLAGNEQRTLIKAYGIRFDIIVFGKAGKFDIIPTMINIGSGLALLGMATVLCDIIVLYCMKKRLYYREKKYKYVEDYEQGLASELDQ

pIC50 (P2X purinoceptor 7 [1])	SMILES	also measured
6.88	COc1cccc(Cn2cnnc2-c2cccc(Cl)c2Cl)c1OC	
6.48	Clc1ccc(Cn2cnnc2-c2cccc(Cl)c2Cl)c(Cl)c1	
7.72	Clc1cccc(-c2nncn2[C@@H]2CCc3ccccc32)c1Cl	pIC50 (P2X purinoceptor 7 [2]): 7.11; pIC50 (THP-1): 7.12
6.86	Clc1ccc(Cl)c(Cn2cnnc2-c2cccc(Cl)c2Cl)c1	
7.19	O=C(NCC12CC3CC(CC(C3)C1)C2)c1cccc(Cl)c1Cl	pIC50 (P2X purinoceptor 7 [2]): 6.09
7.11	Cc1ccccc1Cn1cnnc1-c1cccc(Cl)c1Cl	Activity (Homo sapiens): inactive; Efficacy (Rattus norvegicus): 68%; ED50 (Rattus norvegicus; Rattus norvegicus, 0.5 h): 125 µmol/kg; Activity [3]: inactive; half-life [4]: 1.7 h; Activity [5]: inactive; clearance [6]: 51.7 mL/min/kg; bioavailability [7]: 15%; Vd [8]: 1.9 L/kg; Cmax [9]: 210 ng/mL; Activity [10]: 86%; Activity [11]: inactive; Tmax [12]: 0.33 h; bioavailability [13]: 62%; Activity [14]: inactive; Activity [15]: inactive; pIC50 (P2X purinoceptor 7 [2]): 6.68; pIC50 (THP-1): 6.43
7.31	CSc1ccccc1Cn1cnnc1-c1cccc(Cl)c1Cl	
6.04	Fc1ccc(C(F)(F)F)cc1Cn1cnnc1-c1cccc(Cl)c1Cl	
4.88	CC(C)(c1ccccc1)n1cnnc1-c1cccc(Cl)c1Cl	
6.72	Clc1cccc(Cn2cnnc2-c2cccc(Cl)c2Cl)c1Cl	
6.22	Clc1cccc(-c2cnnn2Cc2ccccc2)c1Cl	
5.05	FC(F)(F)c1ccc(Cn2cnnc2-c2cccc(Cl)c2Cl)cc1	
6.52	Clc1cccc(-c2ncnn2Cc2ccccc2)c1Cl	
6.93	FC(F)c1ccccc1Cn1cnnc1-c1cccc(Cl)c1Cl	
6.68	Clc1cccc(-n2ncnc2Cc2ccccc2)c1Cl	
5.98	CC(c1ccccc1)n1cnnc1-c1cccc(Cl)c1Cl (stereo not given)	

pIC50 (P2X purinoceptor 7 [1])	SMILES	also measured
5.22	Clc1cccc(-c2ccnn2Cc2ccccc2)c1Cl	
5.89	FC(F)(F)c1cccc(Cn2cnnc2-c2cccc(Cl)c2Cl)c1	
7.31	Fc1ccc(C(F)(F)F)c(Cn2cnnc2-c2cccc(Cl)c2Cl)c1	
6.37	Clc1cccc(-n2nncc2Cc2ccccc2)c1Cl	
7.30	Clc1cccc(-c2nncn2[C@H]2CCc3ccccc32)c1Cl	
5.74	Clc1cccc(-c2cncn2Cc2ccccc2)c1Cl	
7.57	CSc1ccccc1Cn1cnnc1-c1cccc(C(F)(F)F)c1Cl	
6.84	CS(=O)(=O)c1ccccc1Cn1cnnc1-c1cccc(C(F)(F)F)c1Cl	
6.72	COc1ccccc1Cn1cnnc1-c1cccc(Cl)c1Cl	
	Clc1cccc(-c2nnnn2Cc2ccccc2)c1Cl	pIC50 (P2X purinoceptor 7 [2]): 7.12; pIC50 (THP-1): 5.60
6.28	Clc1cccc(-c2nncn2Cc2ccccc2)c1Cl	
7.32	Cc1ccc(F)cc1Cn1cnnc1-c1cccc(Cl)c1Cl	pIC50 (P2X purinoceptor 7 [2]): 6.26; pIC50 (THP-1): 6.62
6.67	COc1cccc(Cn2cnnc2-c2cccc(Cl)c2Cl)c1	
7.23	Clc1cccc(-c2nncn2Cc2cccc3ccccc23)c1Cl	
6.88	FC(F)(F)c1ccccc1Cn1cnnc1-c1cccc(Cl)c1Cl	
